Source: patent US8278306B2 (Vertex Pharmaceuticals Incorporated, priority 2006, dated 2012)

What follows are compounds tested against T1, ROCK I (AA 6-553) (Homo sapiens, UniProt Q13464) (assay: ROCK inhibition assay, standard coupled enzyme system). Details: 45 nM ROCK I, 45 μM ATP, 200 μM peptide, 30° C.
T1 construct: ROCK I (AA 6-553)
Type: biochemical
Protocol: Reactions were carried out in a solution containing 100 mM HEPES (pH 7.5), 10 mM MgCl2, 25 mM NaCl, 2 mM DTT and 1.5% DMSO.

T1 sequence (Q13464 6-553, species assumed): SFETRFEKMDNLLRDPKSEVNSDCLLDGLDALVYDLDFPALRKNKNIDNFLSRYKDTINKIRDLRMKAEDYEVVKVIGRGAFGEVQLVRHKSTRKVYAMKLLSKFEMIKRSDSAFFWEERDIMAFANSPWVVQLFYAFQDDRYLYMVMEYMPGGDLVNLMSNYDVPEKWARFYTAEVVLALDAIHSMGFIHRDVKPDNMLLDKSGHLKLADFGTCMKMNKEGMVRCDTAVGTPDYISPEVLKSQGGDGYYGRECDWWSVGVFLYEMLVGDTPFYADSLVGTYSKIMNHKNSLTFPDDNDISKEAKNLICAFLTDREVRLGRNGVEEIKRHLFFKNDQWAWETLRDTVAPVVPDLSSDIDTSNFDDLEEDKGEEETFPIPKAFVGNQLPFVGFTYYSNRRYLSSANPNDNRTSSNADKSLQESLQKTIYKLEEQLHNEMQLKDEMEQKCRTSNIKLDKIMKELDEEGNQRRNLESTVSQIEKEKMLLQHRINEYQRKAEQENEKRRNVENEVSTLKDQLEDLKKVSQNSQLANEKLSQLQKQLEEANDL

| SMILES | Ki |
| --- | --- |
| O=C(Cc1ccc(F)cc1)Nc1nc(-c2ccnc(Cl)c2)cs1 [Compound 2] | 100 to 1000 nM |
| COc1cc(-c2csc(NC(=O)Cc3ccc(F)cc3)n2)ccn1 [Compound 4] | > 1000 nM |
| CCOc1cc(-c2csc(NC(=O)Cc3cccc(OC)c3)n2)ccn1 [Compound 5] | > 1000 nM |
| CCOc1cc(-c2csc(NC(=O)Cc3cc4c(cc3Cl)OCO4)n2)ccn1 [Compound 6] | > 1000 nM |
| CCOc1cc(-c2csc(NC(=O)Cc3ccc(F)cc3)n2)ccn1 [Compound 7] | > 1000 nM |
| CCOc1cc(-c2csc(NC(=O)Cc3ccccc3Cl)n2)ccn1 [Compound 8] | > 1000 nM |
| O=C(Cc1ccccc1Cl)Nc1nc(-c2ccnc(Cl)c2)cs1 [Compound 10] | 100 to 1000 nM |
| CN(C)c1cc(-c2csc(NC(=O)Cc3ccccc3Cl)n2)ccn1 [Compound 11] | > 1000 nM |
| CN(C)c1cc(-c2csc(NC(=O)Cc3cc4c(cc3Cl)OCO4)n2)ccn1 [Compound 12] | > 1000 nM |
| COc1cccc(CC(=O)Nc2nc(-c3ccnc(NCc4ccccc4)c3)cs2)c1 [Compound 14] | > 1000 nM |
| CCNc1cc(-c2csc(NC(=O)Cc3cccc(OC)c3)n2)ccn1 [Compound 15] | 100 to 1000 nM |
| Nc1cc(-c2csc(NC(=O)Cc3ccc(F)cc3F)n2)ccn1 [Compound 16] | < 100 nM |
| Nc1cc(-c2csc(NC(=O)Cc3cc4c(cc3Cl)OCO4)n2)ccn1 [Compound 17] | < 100 nM |
| CCNc1cc(-c2csc(NC(=O)Cc3ccc(F)cc3F)n2)ccn1 [Compound 21] | 100 to 1000 nM |
| CCNc1cc(-c2csc(NC(=O)Cc3cc4c(cc3Cl)OCO4)n2)ccn1 [Compound 22] | 100 to 1000 nM |
| CNc1cc(-c2csc(NC(=O)Cc3ccc(F)cc3F)n2)ccn1 [Compound 23] | 100 to 1000 nM |
| Nc1cc(-c2csc(NC(=O)Cc3cccc(OCCCCl)c3)n2)ccn1 [Compound 24] | 100 to 1000 nM |
| O=C(Cc1ccc(F)cc1F)Nc1nc(-c2ccnc(NCc3ccccc3)c2)cs1 [Compound 25] | 100 to 1000 nM |
| O=C(Cc1cc2c(cc1Cl)OCO2)Nc1nc(-c2ccnc(NCc3ccccc3)c2)cs1 [Compound 26] | 100 to 1000 nM |
| Nc1cc(-c2csc(NC(=O)Cc3ccccc3Cl)n2)ccn1 [Compound 27] | < 100 nM |
| CNc1cc(-c2csc(NC(=O)Cc3ccccc3Cl)n2)ccn1 [Compound 28] | 100 to 1000 nM |
| CCNc1cc(-c2csc(NC(=O)Cc3ccccc3Cl)n2)ccn1 [Compound 29] | 100 to 1000 nM |
| Cc1cc(-c2csc(NC(=O)Cc3ccc(F)cc3F)n2)ccn1 [Compound 30] | 100 to 1000 nM |
| Cc1cc(-c2csc(NC(=O)Cc3cc4c(cc3Cl)OCO4)n2)ccn1 [Compound 32] | < 100 nM |
| Cc1cc(-c2csc(NC(=O)Cc3ccccc3Cl)n2)ccn1 [Compound 33] | 100 to 1000 nM |
| Nc1cc(-c2csc(NC(=O)Cc3cccc(O)c3)n2)ccn1 [Compound 34] | < 100 nM |

| SMILES | Ki |
| --- | --- |
| Nc1cc(-c2csc(NC(=O)Cc3ccccc3F)n2)ccn1 [Compound 35] | < 100 nM |
| Cc1cc(-c2csc(NC(=O)Cc3ccccc3)n2)ccn1 [Compound 36] | 100 to 1000 nM |
| Cc1cc(-c2csc(NC(=O)Cc3cccc(O)c3)n2)ccn1 [Compound 37] | < 100 nM |
| Cc1cc(-c2csc(NC(=O)Cc3ccccc3F)n2)ccn1 [Compound 38] | 100 to 1000 nM |
| Cc1cc(-c2csc(NC(=O)Cc3cccc(OCCCN4CCN(C)CC4)c3)n2)ccn1 [Compound 39] | 100 to 1000 nM |
| Cc1cc(-c2csc(NC(=O)Cc3ccc(F)cc3)n2)ccn1 [Compound 40] | 100 to 1000 nM |
| Nc1cc(-c2csc(NC(=O)Cc3ccccc3)n2)ccn1 [Compound 41] | < 100 nM |
| Nc1cc(-c2csc(NC(=O)Cc3ccc(F)cc3)n2)ccn1 [Compound 42] | 100 to 1000 nM |
| CS(=O)(=O)Nc1ccc(CC(=O)Nc2nc(-c3ccnc(N)c3)cs2)cc1 [Compound 43] | 100 to 1000 nM |
| Cc1cc(-c2csc(NC(=O)Cc3ccc(NS(C)(=O)=O)cc3)n2)ccn1 [Compound 44] | 100 to 1000 nM |
| CN1CCN(CCCOc2cccc(CC(=O)Nc3nc(-c4ccnc(N)c4)cs3)c2)CC1 [Compound 45] | < 100 nM |
| O=C(Cc1ccccc1F)Nc1nc(-c2ccnc(Cl)c2)cs1 [Compound 46] | 100 to 1000 nM |
| O=C(Cc1ccc(F)cc1F)Nc1nc(-c2ccnc(Cl)c2)cs1 [Compound 47] | 100 to 1000 nM |
| O=C(Cc1cccc(O)c1)Nc1nc(-c2ccnc(Cl)c2)cs1 [Compound 48] | < 100 nM |
| O=C(Cc1cc2c(cc1Cl)OCO2)Nc1nc(-c2ccnc(Cl)c2)cs1 [Compound 49] | < 100 nM |
| O=C(Cc1ccccc1)Nc1nc(-c2ccnc(Cl)c2)cs1 [Compound 50] | 100 to 1000 nM |
| CS(=O)(=O)Nc1cccc(CC(=O)Nc2nc(-c3ccnc(Cl)c3)cs2)c1 [Compound 51] | 100 to 1000 nM |
| Nc1cc(-c2csc(NC(=O)Cc3cccc(OCCCN4CCNCC4)c3)n2)ccn1 [Compound 52] | < 100 nM |
| CN1CCN(CCCOc2cccc(CC(=O)Nc3nc(-c4ccnc(Cl)c4)cs3)c2)CC1 [Compound 53] | < 100 nM |
| CCN1CCN(CCCOc2cccc(CC(=O)Nc3nc(-c4ccnc(Cl)c4)cs3)c2)CC1 [Compound 54] | < 100 nM |
| O=C(Cc1cccc(OCCCN2CCNCC2)c1)Nc1nc(-c2ccnc(Cl)c2)cs1 [Compound 55] | < 100 nM |
| O=C(Cc1ccccc1F)Nc1nc(-c2ccnc(F)c2)cs1 [Compound 56] | < 100 nM |
| O=C(Cc1ccc(F)cc1)Nc1nc(-c2ccnc(F)c2)cs1 [Compound 57] | 100 to 1000 nM |
| O=C(Cc1ccc(F)cc1F)Nc1nc(-c2ccnc(F)c2)cs1 [Compound 58] | < 100 nM |
| CS(=O)(=O)Nc1cccc(CC(=O)Nc2nc(-c3ccnc(F)c3)cs2)c1 [Compound 59] | < 100 nM |
| CN1CCN(CCCOc2cccc(CC(=O)Nc3nc(-c4ccnc(F)c4)cs3)c2)CC1 [Compound 60] | < 100 nM |

| SMILES | Ki |
| --- | --- |
| O=C(Cc1ccccc1)Nc1cc(-c2ccnc(F)c2)cs1 [Compound 66] | < 100 nM |
| O=C(Cc1ccc(F)cc1)Nc1cc(-c2ccnc(F)c2)cs1 [Compound 67] | < 100 nM |
| CS(=O)(=O)Nc1ccc(F)c(CC(=O)Nc2cc(-c3ccnc(F)c3)cs2)c1 [Compound 68] | < 100 nM |
| O=C(Cc1ccc(F)cc1F)Nc1cc(-c2ccnc(F)c2)cs1 [Compound 69] | < 100 nM |
| CCN(CC)S(=O)(=O)c1cccc(CC(=O)Nc2cc(-c3ccnc(F)c3)cs2)c1 [Compound 70] | < 100 nM |
| O=C(Cc1cccc(S(=O)(=O)N2CCOCC2)c1)Nc1cc(-c2ccnc(F)c2)cs1 [Compound 71] | 100 to 1000 nM |
| CS(=O)(=O)Nc1ccc(F)c(CC(=O)Nc2cc(-c3ccnc(N)c3)cs2)c1 [Compound 76] | < 100 nM |
| CN(C)S(=O)(=O)c1cccc(CC(=O)Nc2cc(-c3ccnc(F)c3)cs2)c1 [Compound 78] | 100 to 1000 nM |
| CN(C)S(=O)(=O)c1cccc(CC(=O)Nc2cc(-c3ccnc(N)c3)cs2)c1 [Compound 79] | 100 to 1000 nM |
| Cc1cc(-c2csc(NC(=O)Cc3ccccc3F)c2)ccn1 [Compound 81] | 100 to 1000 nM |
| Cc1cc(-c2csc(NC(=O)Cc3cccc(NS(C)(=O)=O)c3)c2)ccn1 [Compound 82] | 100 to 1000 nM |
| Cc1cc(-c2csc(NC(=O)Cc3cccc(S(=O)(=O)N(C)C)c3)c2)ccn1 [Compound 83] | > 1000 nM |
| Cc1cc(-c2csc(NC(=O)Cc3cccc(NS(=O)(=O)N(C)C)c3)c2)ccn1 [Compound 84] | 100 to 1000 nM |
| Cc1cc(-c2csc(NC(=O)Cc3cc(NS(C)(=O)=O)ccc3F)c2)ccn1 [Compound 86] | < 100 nM |
| Cc1cc(-c2csc(NC(=O)Cc3ccccc3)c2)ccn1 [Compound 87] | 100 to 1000 nM |
| O=C(Cc1cccc(O)c1)Nc1cc(-c2ccnc(F)c2)cs1 [Compound 88] | < 100 nM |
| O=C(Cc1ccc(OCCN2CCNCC2)cc1Cl)Nc1cc(-c2ccnc(Cl)c2)cs1 [Compound 95] | < 100 nM |
| CN1CCN(CCOc2ccc(CC(=O)Nc3cc(-c4ccnc(Cl)c4)cs3)c(Cl)c2)CC1 [Compound 96] | < 100 nM |
| O=C(Cc1ccc(OCCCN2CCNCC2)cc1Cl)Nc1cc(-c2ccnc(Cl)c2)cs1 [Compound 97] | < 100 nM |
| CN1CCN(CCCOc2ccc(CC(=O)Nc3cc(-c4ccnc(Cl)c4)cs3)c(Cl)c2)CC1 [Compound 98] | < 100 nM |
| O=C(Cc1ccc(OCCCC2CCNCC2)cc1)Nc1cc(-c2ccnc(Cl)c2)cs1 [Compound 99] | < 100 nM |
| CS(=O)(=O)Nc1ccc(F)c(CC(=O)Nc2cc(-c3ccnc(Cl)c3)cs2)c1 [Compound 100] | < 100 nM |
| NCCC(C(=O)Nc1cc(-c2ccnc(Cl)c2)cs1)c1ccc(F)cc1F (stereo not shown) [Compound 104] | 100 to 1000 nM |
| CN1CCN(CCOc2cccc(CC(=O)Nc3cc(-c4ccnc(N)c4)cs3)c2)CC1 [Compound 106] | < 100 nM |
